Reference: patent US10717733B2, “Haloallylamine indole and azaindole derivative inhibitors of lysyl oxidases and uses thereof” (PHARMAXIS LTD., priority 2016, dated 2020)
Structures can show the parent of a compound that is named as a salt.

Columns and labels:
[1] = biological target: human recombinant SSAO/VAP-1 (Homo sapiens (Human), UniProt Q16853); assay: Inhibition of human recombinant SSAO/VAP-1 amine oxidase activity; type: biochemical; details: 30 min preincubation at 37° C., 600 μM benzylamine
How it was run: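 Purified SSAO/VAP-1 (residues 34-763, expressed in CHO Lec 8 cells; 0.25 μg/mL) preincubated 30 min at 37° C with compound in 0.1 M sodium phosphate pH 7.4. Reaction mix of 600 μM benzylamine, 120 μM Amplex Red and 1.5 U/mL HRP added; fluorescence (ex 565/em 590 nm) read every 2.5 min for 30 min; IC50 from kinetic slopes over 4-11 point curves.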

Bovine LOX = Bovine LOX (Bos taurus (Bovine), UniProt P33072); assay: LOX inhibition, peroxidase-coupled Amplex Red amine oxidase assay; type: biochemical; details: 30 min preincubation at 37° C., putrescine substrate
How it was run: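 Bovine LOX in 1.2 M urea, 50 mM sodium borate pH 8.2 with 1 μM mofegiline and 0.5 mM pargyline; putrescine at twice KM (e.g. 20 mM for LOX) with Amplex Red/HRP. Fluorescence (ex 565/em 590 nm) read kinetically over 30 min at 37–45 °C; IC50 from slopes.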

[2] = tested on: primary fibroblasts from confirmed cases of IPF; assay: Collagen cross-link formation in in vitro fibroblastic foci model of IPF; type: cell-based, human; details: TGF-β1 stimulated foci, six weeks culture, FIGS. 7a and 7b
Text: The lung tissue of patients with idiopathic pulmonary fibrosis (IPF) is characterised by dense collections of myofibroblasts and extracellular matrix (ECM) termed ‘fibroblastic foci’. Using a novel in vitro model of fibroblastic foci (Jones et al., AJRCCM 191; 2015:A4912) the formation of lysyl oxidase (LOX) mediated collagen cross-links and the effects of the nonselective LOX inhibitor β-aminopropionitrile (BAPN) as well lysyl oxidase like-2 (LOXL2)-selective inhibitors were investigated.
Cultures of primary fibroblasts were grown out from clinical diagnostic biopsies of fibrotic lung and stored in liquid nitrogen. […]
To quantify collagen cross-links (Robins Biochem Soc Trans 2007; 35(5): 849-852; Saito et al Anal. Biochem. 1997; 253: 26-32; Sims, Avery & Bailey Methods in Molecular Biology 2000; vol 139: 11-26), cultures were treated with potassium borohydride to stabilise the reducible immature cross-links, and hydrolysed in 6N HCl at 100° C. for 16 hr. Total collagen content was assessed by hydroxyproline assay. Immature cross-links were assessed by LC/MS/MS and mature pyridinoline cross-links by ELISA. Cross-link data is expressed as moles of cross-link per mole collagen.

Human LOXL2 = Human LOXL2 (Homo sapiens (Human), UniProt Q9Y4K0); assay: LOXL2 inhibition, peroxidase-coupled Amplex Red amine oxidase assay; type: biochemical; details: 30 min preincubation at 37° C., putrescine substrate
How it was run: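 Enzyme in 1.2 M urea, 50 mM sodium borate pH 8.2 with 1 μM mofegiline and 0.5 mM pargyline, preincubated 30 min at 37° C with compound (11-point CRC). Putrescine at twice KM (10 mM for LOXL2) with Amplex Red/HRP; fluorescence (ex 565, em 590) read kinetically 30 min; IC50 from slopes.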

Recombinant human MAO-B = Recombinant human MAO-B (Homo sapiens (Human), UniProt P27338); assay: Inhibition of human recombinant MAO-B; type: biochemical; details: benzylamine 100 μM
How it was run: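 Recombinant human MAO-B used as enzyme source (0.06 mg/mL, stated concentration). Run as for the human SSAO/VAP-1 assay, except benzylamine substrate at 100 μM.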

Chain of Bovine LOX (P33072 170-418): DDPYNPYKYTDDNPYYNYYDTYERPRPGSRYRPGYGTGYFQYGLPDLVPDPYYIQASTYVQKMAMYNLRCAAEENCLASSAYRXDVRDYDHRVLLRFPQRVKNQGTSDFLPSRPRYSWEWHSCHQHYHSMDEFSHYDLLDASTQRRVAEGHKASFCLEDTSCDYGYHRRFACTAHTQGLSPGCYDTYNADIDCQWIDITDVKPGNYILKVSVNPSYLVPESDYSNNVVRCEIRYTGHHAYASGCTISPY
Chain of Human LOXL2 (Q9Y4K0 26-774): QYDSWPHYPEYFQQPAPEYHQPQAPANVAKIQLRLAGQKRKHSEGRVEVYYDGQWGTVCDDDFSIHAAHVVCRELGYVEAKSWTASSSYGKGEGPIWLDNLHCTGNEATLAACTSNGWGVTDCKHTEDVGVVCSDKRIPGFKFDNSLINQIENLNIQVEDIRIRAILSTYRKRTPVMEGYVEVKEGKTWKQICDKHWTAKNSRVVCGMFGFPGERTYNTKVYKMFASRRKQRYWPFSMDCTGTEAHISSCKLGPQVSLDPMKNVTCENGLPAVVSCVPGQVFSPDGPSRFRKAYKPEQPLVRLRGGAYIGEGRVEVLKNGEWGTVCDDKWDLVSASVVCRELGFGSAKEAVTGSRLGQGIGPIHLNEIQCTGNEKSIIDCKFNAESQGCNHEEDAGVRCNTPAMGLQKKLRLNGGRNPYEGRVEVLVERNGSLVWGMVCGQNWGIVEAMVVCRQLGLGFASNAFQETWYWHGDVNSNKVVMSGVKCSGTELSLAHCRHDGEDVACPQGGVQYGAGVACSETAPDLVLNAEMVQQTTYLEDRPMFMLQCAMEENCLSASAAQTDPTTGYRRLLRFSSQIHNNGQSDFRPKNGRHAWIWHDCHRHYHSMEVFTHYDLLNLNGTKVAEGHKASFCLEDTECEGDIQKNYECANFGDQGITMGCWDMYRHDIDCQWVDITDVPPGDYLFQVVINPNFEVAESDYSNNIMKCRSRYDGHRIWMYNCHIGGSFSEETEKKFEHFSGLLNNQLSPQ
Chain of Recombinant human MAO-B (P27338 whole entry): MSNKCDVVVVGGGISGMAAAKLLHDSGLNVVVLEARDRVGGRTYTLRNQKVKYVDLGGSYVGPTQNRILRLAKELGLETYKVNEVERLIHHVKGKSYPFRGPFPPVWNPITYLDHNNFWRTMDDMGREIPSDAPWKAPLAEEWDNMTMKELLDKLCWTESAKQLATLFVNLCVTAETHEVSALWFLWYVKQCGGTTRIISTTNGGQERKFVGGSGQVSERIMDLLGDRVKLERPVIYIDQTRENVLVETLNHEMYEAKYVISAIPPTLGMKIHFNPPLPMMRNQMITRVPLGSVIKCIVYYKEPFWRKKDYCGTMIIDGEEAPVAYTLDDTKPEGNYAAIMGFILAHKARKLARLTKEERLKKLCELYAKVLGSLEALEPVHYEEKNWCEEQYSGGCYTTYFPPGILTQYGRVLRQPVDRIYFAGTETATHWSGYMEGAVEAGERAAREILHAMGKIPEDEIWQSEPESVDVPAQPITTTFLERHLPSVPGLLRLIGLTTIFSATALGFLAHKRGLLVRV
Chain of human recombinant SSAO/VAP-1 (Q16853 34-763): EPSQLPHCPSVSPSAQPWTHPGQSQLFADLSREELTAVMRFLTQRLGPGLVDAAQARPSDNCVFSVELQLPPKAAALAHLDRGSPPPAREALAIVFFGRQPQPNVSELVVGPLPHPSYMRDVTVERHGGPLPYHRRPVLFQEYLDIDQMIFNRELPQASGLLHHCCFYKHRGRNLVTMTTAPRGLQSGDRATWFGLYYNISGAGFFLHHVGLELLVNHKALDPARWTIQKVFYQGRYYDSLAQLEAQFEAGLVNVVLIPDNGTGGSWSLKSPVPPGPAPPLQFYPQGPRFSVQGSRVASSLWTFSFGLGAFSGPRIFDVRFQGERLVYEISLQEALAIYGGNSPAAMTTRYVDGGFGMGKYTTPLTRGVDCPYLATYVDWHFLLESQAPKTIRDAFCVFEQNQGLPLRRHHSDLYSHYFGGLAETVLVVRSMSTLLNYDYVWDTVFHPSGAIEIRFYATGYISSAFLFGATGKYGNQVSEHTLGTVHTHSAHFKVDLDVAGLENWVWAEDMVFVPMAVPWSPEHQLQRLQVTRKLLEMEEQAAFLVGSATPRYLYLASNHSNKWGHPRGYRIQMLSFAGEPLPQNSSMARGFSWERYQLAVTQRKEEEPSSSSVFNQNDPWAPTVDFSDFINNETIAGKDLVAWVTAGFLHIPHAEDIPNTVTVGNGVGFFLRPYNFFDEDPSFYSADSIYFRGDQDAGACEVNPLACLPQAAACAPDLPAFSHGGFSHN

SMILES | IC50 [1] [µM] | IC50 (Bovine LOX) [µM] | collagen cross-link formation (immature and mature cross-links) [2] | IC50 (Human LOXL2) [µM] | IC50 (Recombinant human MAO-B) [µM]
N#CCCN [BAPN, β-aminopropionitrile, reference compound] | > 3 | > 1 | reduced cross-link formation in a concentration dependent manner | < 1 | > 3
COCc1ccc2c(n1)c(-c1cccc(S(=O)(=O)N(C)C)c1)c(C)n2C/C(F)=C/CN [Compound 103, (Z)-3-(1-(4-amino-2-fluorobut-2-en-1-yl)-5-(methoxymethyl)-2-methyl-1H-pyrrolo[3,2-b]pyridin-3-yl)-N,N-dimethylbenzenesulfonamide] | > 3 | > 0.3 |  | < 0.3 | > 3
CNS(=O)(=O)c1cccc(-c2c(C)n(C/C(F)=C/CN)c3ccc(C(=O)O)cc23)c1 [Compound 18, (Z)-1-(4-amino-2-fluorobut-2-en-l-yl)-2-methyl-3-(3-(N-methylsulfamoyl)phenyl)-1H-indole-5-carboxylic acid, Hydrochloride] | > 3 | > 0.3 |  | < 0.3 | > 3
Cc1c(-c2ccc(F)cc2)c2cc(S(N)(=O)=O)ccc2n1C/C(F)=C/CN [Compound 95, (Z)-1-(4-amino-2-fluorobut-2-en-1-yl)-3-(4-fluorophenyl)-2-methyl-1H-indole-5-sulfonamide] | > 3 | > 0.3 |  | < 0.3 | > 3
Cc1c(-c2cccc(S(=O)(=O)N(C)C)c2)c2ccc(C(=O)N(C)C)cc2n1C/C(F)=C/CN [Compound 10, (Z)-1-(4-amino-2-fluorobut-2-en-1-yl)-3-(3-(N,N-dimethylsulfamoyl)phenyl)-N,N,2-trimethyl-1H-indole-6-carboxamide] | > 3 | > 0.3 |  | < 0.3 | > 3
Cc1c(-c2cccc(S(=O)(=O)N(C)C)c2)c2cc(-c3ncon3)ccc2n1C/C(F)=C/CN [Compound 55, (Z)-3-(1-(4-amino-2-fluorobut-2-en-1-yl)-2-methyl-5-(1,2,4-oxadiazol-3-yl)-1H-indol-3-yl)-N,N-dimethylbenzenesulfonamide] | > 3 | > 0.3 |  | < 0.3 | > 3
Cc1c(-c2cccc(S(=O)(=O)N(C)C)c2)c2ccc(C(N)=O)cc2n1C/C(F)=C/CN [Compound 11, (Z)-1-(4-amino-2-fluorobut-2-en-1-yl)-3-(3-(N,N-dimethylsulfamoyl)phenyl)-2-methyl-1H-indole-6-carboxamide] | > 3 | > 0.3 |  | < 0.3 | > 3
